Laboratory results taken from patent US10066190B2, “Mild liquid detergent formulations” (Henkel IP & Holding GmbH, priority 2016, dated 2018).

System: human stratum corneum
Assay: Corneosurfametry test
Text: Another method to measure the skin irritancy potential is corneosurfametry (CSM) test, a noninvasive quantitative test that measures the interaction between surfactants and human stratum corneum. ([…] et al., Dermatology 189: 152-156 (1994)). Corneosurfametry involves removing a few layers of skin using cyanoacrylate skin surface strippings, short contact time with surfactants followed by staining the samples with fuchian dyes. A […] barrier allows greater penetration of the stain, therefore giving a more intense color, which is measured using colorimetrically with L*a*b* color space. This method is predictive of both protein and lipid damage in the skin. CIM (Color Indicator of Mildness) values are obtained from a corneosurfametry test. In a comparative study, the higher the CIM value, the milder the surfactant formulation. The test surfactant solution can be a solution with 3% active surfactant, or a 10% dilution of a surfactant formulation/product which has a total surfactant concentration of about 10%-25%. Corneosurfametry involves removing a few layers of human skin from the volar forearm of healthy adults using skin surface strippings. The skin was collected with D-Squame tapes (for tests with neutral pH formulas) and with Book tape (for tests with high pH formulas). […] Once the tapes are dry, they were analyzed with spectrophotometer. […]

CIM: 36.84
Structure (SMILES): CCCCCCCCCCCCOS(=O)(=O)[O-].[Na+] [1% SDS, SDS]
